{
  "source": "paper PMC5624297",
  "about": "“Trichoplax adhaerens reveals a network of nuclear receptors sensitive to 9-cis-retinoic acid at the base of metazoan evolution” (PeerJ, 2017)",
  "target": "T1, TaRXR (T. adhaerens RXR; GST-TaRXR) (Trichoplax adhaerens, UniProt A0A290WNL1)",
  "T1 construct": "full-length RXR cDNA in pGEX-2T, E. coli BL21 pLysS; N-terminal GST fusion on glutathione beads or thrombin-cleaved; starts MEDRSFK (from printed primer)",
  "T1 sequence (A0A290WNL1 1-345)": "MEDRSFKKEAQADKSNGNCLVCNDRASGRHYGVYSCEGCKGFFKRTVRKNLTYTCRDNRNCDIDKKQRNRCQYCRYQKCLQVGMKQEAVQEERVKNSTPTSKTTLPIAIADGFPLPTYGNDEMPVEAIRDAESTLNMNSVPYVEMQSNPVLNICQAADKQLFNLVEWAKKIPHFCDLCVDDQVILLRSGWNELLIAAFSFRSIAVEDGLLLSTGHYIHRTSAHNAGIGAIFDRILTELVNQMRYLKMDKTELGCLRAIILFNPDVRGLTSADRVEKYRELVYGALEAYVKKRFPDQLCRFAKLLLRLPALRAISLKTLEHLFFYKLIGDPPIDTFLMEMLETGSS",
  "experiment": "radioligand saturation binding (GST-TaRXR on beads) and competition (thrombin-cleaved TaRXR)",
  "conditions": "labelled compound (3H); 50 mM Tris-HCl pH 7.4, 1 mM EDTA, 120 mM KCl, 5 mM DTT, 8% glycerol, 0.3-0.5% CHAPS; 2 h on ice in dark",
  "data": [
    {"smiles": "CC1=C(/C=C/C(C)=C\\C=C\\C(C)=C\\C(=O)O)C(C)(C)CCC1", "note": "[9-cis-retinoic acid]", "values": [
      {"measurement": "radioligand saturation binding (GST-TaRXR on beads) and competition (thrombin-cl)", "value": "TaRXR prepared as thrombin cleaved TaRXR or GST-TaRXR binds 9-cis-RA with high affinity and specificity"}
    ]}
  ]
}
